Patent EP2902035B1, “Cell-permeable peptide inhibitors of the JNK signal transduction pathway for use in the treatment of inflammatory eye diseases” (Xigen Inflammation Ltd., priority 2010, dated 2012)

What was measured:
[1] = test system: phospho-p44/42 MAPK (Erk1/2); test: Immunohistochemistry of p-Erk1/2 on ocular sections in EIU; format: in vivo, Lewis rats; details: 24h
Protocol: A second set of experiment was designed to evaluate the anti-inflammatory effect of the JNK-inhibitor (poly-)peptide of SEQ ID NO: 11 at the cellular and tissue level as well as the biodistribution of this molecule 24 hours after administration. Rats were randomized into 11 experimental groups. 6 groups of rats with uveitis: untreated uveitic rats, rats injected intravenously with NaCl or the JNK-inhibitor (poly-)peptide of SEQ ID NO: 11 and rats injected intravitreously with the vehicle, the JNK-inhibitor (poly-)peptide of SEQ ID NO: 11 or dexamethasone. The 5 additional groups without uveitis were: untreated healthy rats, rats treated by NaCl IV or the JNK-inhibitor (poly-)peptide of SEQ ID NO: 11 IV and rats injected IVT with NaCl or the JNK-inhibitor (poly-)peptide of SEQ ID NO: 11. Three eyes from separate rats were collected per group and used for immunohistochemistry. Immunostaining of p-Erk1/2 was performed to evaluate the effect of the JNK-inhibitor (poly-)peptide of SEQ ID NO: 11 on the ERK pathway after IV or IVT administration. Sections were permeabilized as described above and incubated in blocking solution containing 0.1% Triton X-100 and 10% FCS (fetal calf serum) in PBS for 1 hour at room temperature. […]

[2] = test system: intraocular LPS-induced Chemokine/Cytokine profiles; test: Chemokine/Cytokine Multiplex Assay on ocular fluids in EIU; format: in vivo, Lewis rats
Protocol: Aqueous humor and vitreous were collected and pooled from each enucleated eye. Ocular fluids were immediately centrifuged and the cell-free fractions were collected and frozen at -20°C before analysis by Multiplex assay. Blood samples were first clotted at room temperature for 2 hours and then at 4°C overnight. Serum was collected, centrifuged and the clear supernatant was collected and frozen at -20°C before Multiplex analysis.
In a first set of experiment, 70 rats were randomized into 14 experimental groups with 5 rats per group. Uveitis was induced in each group and rats were killed 6 hours (4 groups), 24 hours (6 groups) and 48 hours (4 groups) after LPS challenge. For each time point tested (i.e. 6h, 24h and 48h), rats treated by intravenous or intravitreous injections of vehicle (NaCl 0.9%) or the JNK-inhibitor (poly-)peptide of SEQ ID NO: 11 were compared to untreated control uveitic rats. Two additional groups, treated by intravenous injection of vehicle and intravitreal injection of dexamethasone were used at 24 hours. Clinical ocular inflammation was recorded only at 24 hours (see Scoring of Endotoxin-Induced Uveitis (EIU) section). At each time point, intraocular fluids from each eye (n=10 per group) and serum from each animal (n=5 per group) were used for Chemokine/Cytokine Multiplex Assay.
Intraocular fluids (diluted to obtain a final volume of 25 µL) and sera (25 µL of 1:5 dilution) were subjected to multiplex bead analysis. This method uses microspheres as the solid support for immunoassays 12 and allows the titration of a greater number of cytokines with increased sensitivity than occurs with ELISA.13 For each sample, seventeen analytes were quantified simultaneously using the rat Cytokine/Chemokine-17plex kit (Milliplex Map Kit, Millipore, Saint-Quentin-en-Yvelines, France) according to the manufacturer's instructions: Chemokines MCP-1/CCL2, MIP-1α/CCL3, RANTES/CCL5, IP-10/CXCL10 (IFN-inducible protein-10) and GRO/KC; proinflammatory mediators IL-1, IL-18 and TNF-; Th1/Th2/Th17 cytokines IL-2 and IFN- / IL-4, IL-5, IL-6, IL-10 and IL-13 / IL-17. The assay was performed in a 96-well filter plate and standard curves for each cytokine were generated with a Rat Cytokine Standard provided in the kit. All incubation steps were performed under medium orbital agitation and in the dark to protect the beads from light. Data acquisition and analysis were performed with the manager software version 4.1 (Bioplex; Bio-Rad) with four or five logistic parameters for standard curves. Detection thresholds for all the analytes were estimated around 1 to 10 pg/mL.

[3] = ocular fluids, IV at the time of LPS challenge, at 6 and 24 hours
[4] = ocular fluids, IV, at different time points
[5] = ocular fluids, IVT, at 24 hours
[6] = treated versus untreated eyes, any of the tested time points

For `CC(C)C[C@@H](NC(=O)[C@@H](Cc1ccccc1)NC(=O)[C@H]1CCCN1C(=O)[C@@H](CCC(N)=O)NC(=O)[C@H](NC(=O)[C@H]1CCCN1C(=O)[C@@H](CCCNC(=N)N)NC(=O)[C@@H](CO)NC(=O)[C@@H](CCC(N)=O)NC(=O)[C@H](N)CC(=O)O)C(C)C)C(=O)N[C@H](CC(N)=O)C(=O)N[C@H](CC(C)C)C(=O)N[C@@H](C(=O)N[C@@H](C(=O)N1CCC[C@@H]1C(=O)N[C@H](CCCNC(=N)N)C(=O)N[C@H](CCCCN)C(=O)N1CCC[C@@H]1C(=O)N[C@H](CCCNC(=N)N)C(=O)N1CCC[C@@H]1C(=O)N1CCC[C@@H]1C(=O)N[C@H](CCCNC(=N)N)C(=O)N[C@H](CCCNC(=N)N)C(=O)N[C@H](CCCNC(=N)N)C(=O)N[C@H](CCC(N)=O)C(=O)N[C@H](CCCNC(=N)N)C(=O)N[C@H](CCCNC(=N)N)C(=O)N[C@H](CCCCN)C(=O)N[C@H](CCCCN)C(=O)N[C@H](CCCNC(=N)N)C(=O)NCC(=O)O)[C@H](C)O)[C@H](C)O` [SEQ ID NO: 11], the “effect on p-Erk1/2 signal in the iris epithelium” value ([1]; iris epithelium) was “no effect”, the “effect on p-Erk1/2 in retinal Müller glial (RMG) cells” value ([1]; neuroretina, administered by either route (IV or IVT)) was “no effect” and the MCP-1 [2, 3] was “significant reduction”. For the same molecule, the MIP-1α [2, 3] was “significant reduction”, the RANTES [2, 3] was “significant reduction” and the GRO/KC ([2]; ocular fluids, IV, at 6 hours) was “significantly reduced”. For the same molecule, the IL-10 ([2]; ocular fluids, IV, at 6 hours, not significantly) was “tended to increase”, the IL-6 [2, 4] was “significantly reduced” and the INF-γ [2, 4] was “significantly reduced”. The TNF-α [2, 4] was “significantly reduced”, the IL-2 ([2]; ocular fluids, IVT, at 6 hours) was “trend to a decrease” and the IL-6 ([2]; ocular fluids, IVT, at 6 hours) was “trend to a decrease”. The MCP-1 ([2]; ocular fluids, IVT, at 6 hours) was “trend to a decrease”, the TNF-α ([2]; ocular fluids, IVT, at 6 hours) was “trend to a decrease” and the IL-2 [2, 5] was “marked decrease”. For the same molecule, the IL-13 [2, 5] was “increase”, the chemokine/ cytokine profiles ([2]; ocular fluids, injected into the vitreous at the time of LPS challenge, versus vehicle) was “not strikingly different” and the IL-1β [2, 6] was “did not differ”. For the same molecule, the IL-4 [2, 6] was “did not differ” and the IL-18 [2, 6] was “did not differ”.
